Laboratory results published in PubChem BioAssay (NCI).
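Exposure lasted 48 hours, with cells grown in 96-well plates and compounds tested at five concentrations. TGI denotes the concentration required for complete inhibition of growth.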

Columns and labels:
Experiment in all cases: inhibition of tumour cell growth, NCI panel, 48 h
[1] = test system: DLD-1 colon
[2] = test system: DMS 114 small cell lung
[3] = test system: DMS 273 small cell lung
[4] = test system: HOP-18 NSCLC
[5] = test system: IGROV1 ovarian
[6] = test system: KM20L2 colon
[7] = test system: LOX IMVI melanoma
[8] = test system: LXFL 529 NSCLC
[9] = test system: RXF 393 renal
[10] = test system: SNB-78 CNS
[11] = test system: XF 498 CNS
[12] = test system: M19-MEL melanoma
[13] = test system: RXF-631 renal
[14] = test system: DU-145 prostate

| SMILES | TGI [1] [µM] | TGI [2] [µM] | TGI [3] [µM] | TGI [4] [µM] | TGI [5] [µM] | TGI [6] [µM] | TGI [7] [µM] | TGI [8] [µM] | TGI [9] [µM] | TGI [10] [µM] | TGI [11] [µM] | TGI [12] [µM] | TGI [13] [µM] | TGI [14] [µM] |
| --- | --- | --- | --- | --- | --- | --- | --- | --- | --- | --- | --- | --- | --- | --- |
| COc1ccc2c(c1)c(=O)c1ccccc1n2/C=C/C(=O)O | > 66.2 | > 100 | > 67 | > 100 | > 100 | > 100 | > 65.6 | > 100 | > 100 | > 100 | > 100 |  |  |  |
| COc1c(Cl)c2c(c(OC)c1OC)-c1ccc(OC)c(=O)c(Cl)c1C(NC(C)=O)CC2 (stereo unspecified) | > 100 | 1.11 | > 100 | > 100 |  |  | 5.87 | > 100 |  | > 100 | 12.9 | > 28.4 | 6.32 |  |
| C=CCCC(OCOCCOC)c1cc(C)c(O[Si](C)(C)C(C)(C)C)c(C)c1 (stereo unspecified) |  | 28 |  | 96.4 | 90.5 | 29 | 27.6 | > 100 | 27.4 | > 100 |  | 55.3 | 30.4 |  |
| O=S1(=O)OCCOS(=O)(=O)C1I | > 100 | > 100 | > 100 |  | > 100 |  |  | > 100 |  | > 100 | > 100 | > 100 | > 100 |  |
| COC(=O)c1ccc(OCc2ccc3nc(OC)c(OC)nc3c2)cc1 | > 100 | > 100 | > 100 | > 100 |  |  | > 100 |  |  | > 100 | > 100 | > 100 |  |  |
| O=C(O)/C=C/n1c2ccccc2c(=O)c2ccccc21 | > 100 | > 100 | > 100 |  | > 100 | > 100 | > 100 |  | > 100 | > 100 | > 100 | > 100 | > 100 |  |
| COc1cccc2c1CCc1ccccc1CC2=O | > 100 | > 100 | > 100 | > 100 | > 100 | > 100 | > 100 | > 100 | > 100 |  | > 100 | > 100 |  |  |
| COc1ccc(N2C(=O)C3c4[nH]c5ccc(OC)cc5c4C4CCC(C(C)(C)C)CC4C3C2=O)cc1 (stereo unspecified) | > 100 | > 100 | 40.1 | > 100 | > 100 | > 100 | > 100 | 65.2 | 58.1 | 45.3 | > 100 | > 100 |  |  |
| CN(C)c1ccc(-c2cc(=O)c3cc4c(cc3[nH]2)OCO4)cc1 | > 100 | > 100 | > 100 |  | > 100 | > 100 | > 100 | > 100 | > 100 |  | > 100 | > 100 | > 100 |  |
| C/C(=N\NS(=O)(=O)c1ccc(C)cc1)C(CN1CCOCC1)C(c1ccccc1)c1c(O)c2ccccc2oc1=O (stereo unspecified) | > 100 |  |  | > 100 | > 100 | > 100 | > 100 | > 100 | > 100 | > 100 | > 100 | > 100 | > 100 |  |
| C=CCc1cc(-c2cc(CC=C)c(O)c(CN(CCCl)CCCl)c2)cc(CN(CCCl)CCCl)c1O | 36.2 |  | 30.3 | 67 | 38.9 | 35.4 | > 80.8 | 29.7 | 35.8 | > 100 |  | 34.7 | 39.3 | 30.8 |
| CNC(=O)CN(CC(=O)NC)C(=O)NC | > 100 |  | > 100 |  | > 100 | > 100 | > 100 | > 100 | > 100 | > 100 | > 100 | > 100 |  |  |
